Literature values as cited in patent US20050147620A1, “Cinnamon formulation for reducing cholesterol and/or glucose levels” (priority 2004, published 2005).

Key:
[1] = ingestion of 20 to 30 g per day for several days

| Compound | increase in human skeletal muscle total creatine content [1] | pKa |
| --- | --- | --- |
| CN(CC(=O)O)C(=N)N.O [creatine monohydrate] | greater than 20% | – |
| O=C(O)CCCCC1CCSS1 (stereo not drawn) [lipoic acid, α-lipoic acid] | – | 4.7 |
